Assay results taken from US20060069132A1, “Azolecarboxamide herbicides” (priority 2004, published 2006).

Columns and labels:
[1] = test system: blackgrass; experiment: Test B postemergence herbicide test; type: in vivo, Alopecurus myosuroides; details: scale 0 (no effect) to 100 (complete control)
How it was run: (§1)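 Scale 0–100: zero equals no visible effect, 100 complete control, judged by eye relative to controls. Timing: 13 to 15 days in greenhouse post-treatment. Growth stage at spraying: two leaves (paddy) or one to four leaves, 2–18 cm (postemergence).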

[2] = test system: wild oat; experiment: Test B postemergence herbicide test; type: in vivo, Avena fatua; details: scale 0 (no effect) to 100 (complete control)
How it was run: (§2)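 Greenhouse test; postemergence application to plants at 1–4 leaves (2–18 cm); paddy species at 2 leaves; evaluated visually vs controls at 13–15 days; scale 0–100 (100 = complete control).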

[3] = test system: giant foxtail; experiment: Test B pre-/postemergence herbicide test; type: in vivo, Setaria faberi; details: for Plant response rating (0 to 100 scale), Foxtail, Giant: 0 is no effect, 100 is complete control, preemergence; for Foxtail, Giant plant response rating: scale 0 (no effect) to 100 (complete control)
How it was run: (§3)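 Test chemicals in a non-phytotoxic solvent mixture with surfactant were applied preemergence to seeded species and postemergence to plants 2-18 cm tall (1- to 4-leaf stage); rice and barnyardgrass were also tested in a flooded paddy at the 2-leaf stage. Visual rating versus controls after 13-15 days in greenhouse, scale 0 (no effect) to 100 (complete control).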

[4] = test system: lambsquarters; experiment: Test B pre-/postemergence herbicide test; type: in vivo, Chenopodium album; details: for Plant response rating (0 to 100 scale), Lambsquarters: 0 is no effect, 100 is complete control, preemergence; for Lambsquarters plant response rating: scale 0 (no effect) to 100 (complete control)
How it was run: as §3

[5] = test system: velvetleaf; experiment: Test B pre-/postemergence herbicide test; type: in vivo, Abutilon theophrasti; details: for Plant response rating (0 to 100 scale), Velvetleaf: 0 is no effect, 100 is complete control, preemergence; for Velvetleaf plant response rating: scale 0 (no effect) to 100 (complete control)
How it was run: as §3

[6] = test system: barnyardgrass; experiment: Test B pre-/postemergence herbicide test; type: in vivo, Echinochloa crus-galli; details: for Plant response rating (0 to 100 scale), Barnyardgrass: 0 is no effect, 100 is complete control, preemergence; for Barnyardgrass plant response rating: scale 0 (no effect) to 100 (complete control)
How it was run: (§4)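 Formulation: non-phytotoxic solvent mix with surfactant. Timing: preemergence on seed and postemergence on 2–18 cm plants, applied concurrently. Readout after 13–15 d greenhouse: visual 0–100 control rating against controls.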

[7] = test system: pigweed; experiment: Test B pre-/postemergence herbicide test; type: in vivo, Amaranthus retroflexus; details: for Plant response rating (0 to 100 scale), Pigweed: 0 is no effect, 100 is complete control, preemergence; for Pigweed plant response rating: scale 0 (no effect) to 100 (complete control)
How it was run: as §3

[8] = test system: Surinam grass; experiment: Test B pre-/postemergence herbicide test; type: in vivo, Urochloa decumbens; details: for Plant response rating (0 to 100 scale), Surinam Grass: 0 is no effect, 100 is complete control, preemergence; for Surinam Grass plant response rating: scale 0 (no effect) to 100 (complete control)
How it was run: as §3

[9] = test system: ducksalad; experiment: Test B flooded paddy test; type: in vivo, Heteranthera limosa; details: 1000 g ai/ha, scale 0 to 100 (0 no effect, 100 complete control)
How it was run: as §1

[10] = test system: small flower umbrella sedge; experiment: Test B flooded paddy test; type: in vivo, Cyperus difformis; details: 1000 g ai/ha, scale 0 to 100 (0 no effect, 100 complete control)
How it was run: as §1

[11] = test system: cocklebur; experiment: Test B pre-/postemergence herbicide test; type: in vivo, Xanthium strumarium; details: for Plant response rating (0 to 100 scale), Cocklebur: 0 is no effect, 100 is complete control, preemergence; for Cocklebur plant response rating: scale 0 (no effect) to 100 (complete control)
How it was run: as §4

[12] = test system: large crabgrass; experiment: Test B pre-/postemergence herbicide test; type: in vivo, Digitaria sanguinalis; details: for Plant response rating (0 to 100 scale), Crabgrass, Large: 0 is no effect, 100 is complete control, preemergence; for Crabgrass, Large plant response rating: scale 0 (no effect) to 100 (complete control)
How it was run: as §3

[13] = test system: morningglory; experiment: Test B pre-/postemergence herbicide test; type: in vivo, Ipomoea coccinea; details: for Plant response rating (0 to 100 scale), Morningglory: 0 is no effect, 100 is complete control, preemergence; for Morningglory plant response rating: scale 0 (no effect) to 100 (complete control)
How it was run: as §4

[14] = test system: corn; experiment: Test B pre-/postemergence herbicide test; type: in vivo, Zea mays; details: for Plant response rating (0 to 100 scale), Corn: 0 is no effect, 100 is complete control, preemergence; for Corn plant response rating: scale 0 (no effect) to 100 (complete control)
How it was run: as §3

[15] = test system: wheat; experiment: Test B postemergence herbicide test; type: in vivo, Triticum aestivum; set-up: key to Wheat plant response rating: 0 = no effect, 100 = complete control
How it was run: as §2

[16] = test system: rice; experiment: Test B flooded paddy test; type: in vivo, Oryza sativa; details: 1000 g ai/ha, scale 0 to 100 (0 no effect, 100 complete control)
How it was run: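 Paddy species grown to the 2-leaf stage under flooding; blackgrass sprayed postemergence at 2–18 cm (1- to 4-leaf stage). Plants kept in a greenhouse for 13 to 15 days, then visually rated against controls on 0 (no effect) to 100 (complete control).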

[17] = test system: barnyardgrass; experiment: Test B flooded paddy test; type: in vivo, Echinochloa crus-galli; details: 1000 g ai/ha, scale 0 to 100 (0 no effect, 100 complete control)
How it was run: as §1

[18] = 125 g ai/ha, visual rating, postemergence
[19] = 125 g ai/ha, visual rating, scale 0 (no effect) to 100 (complete control), postemergence
[20] = 500 g ai/ha, scale 0 to 100, 0 no effect, 100 complete control, preemergence
[21] = Postemergence, 500 g ai/ha, scale 0 (no effect) to 100 (complete control)

C=CCN(CC=C)C(=O)c1cccc(NC(=O)c2nn(C(C)C)nc2CC)c1 [Compound 390]
30: Foxtail, Giant plant response rating ([3]; Postemergence, 500 g ai/ha) | Plant response rating (0 to 100 scale), Lambsquarters ([4]; 125 g ai/ha) | Rice plant response rating [16]
0: Blackgrass plant response rating [1, 18] | Oat, Wild plant response rating [2, 18] | Plant response rating (0 to 100 scale), Foxtail, Giant ([3]; 125 g ai/ha) | Plant response rating (0 to 100 scale), Velvetleaf ([5]; 125 g ai/ha) | Velvetleaf plant response rating [5, 18] | Plant response rating (0 to 100 scale), Barnyardgrass ([6]; 125 g ai/ha) | Barnyardgrass plant response rating [6, 18] | Plant response rating (0 to 100 scale), Pigweed ([7]; 125 g ai/ha) | Plant response rating (0 to 100 scale), Surinam Grass ([8]; 125 g ai/ha) | Surinam Grass plant response rating [8, 18] | Plant response rating (0 to 100 scale), Cocklebur ([11]; 125 g ai/ha) | Plant response rating (0 to 100 scale), Morningglory ([13]; 125 g ai/ha) | Morningglory plant response rating [13, 18] | Plant response rating (0 to 100 scale), Corn ([14]; 125 g ai/ha) | Corn plant response rating [14, 18] | Wheat plant response rating [15, 19] | Wheat plant response rating [15, 21] | Barnyardgrass plant response rating [17]
20: Velvetleaf plant response rating ([5]; Postemergence, 500 g ai/ha) | Cocklebur plant response rating [11, 18] | Cocklebur plant response rating ([11]; Postemergence, 500 g ai/ha) | Crabgrass, Large plant response rating ([12]; Postemergence, 500 g ai/ha) | Corn plant response rating ([14]; Postemergence, 500 g ai/ha)
40: Ducksalad plant response rating [9] | Morningglory plant response rating ([13]; Postemergence, 500 g ai/ha)
10: Blackgrass plant response rating ([1]; Postemergence, 500 g ai/ha) | Oat, Wild plant response rating ([2]; Postemergence, 500 g ai/ha) | Foxtail, Giant plant response rating [3, 18] | Barnyardgrass plant response rating ([6]; Postemergence, 500 g ai/ha) | Surinam Grass plant response rating ([8]; Postemergence, 500 g ai/ha) | Plant response rating (0 to 100 scale), Crabgrass, Large ([12]; 125 g ai/ha) | Crabgrass, Large plant response rating [12, 18] | Wheat plant response rating [15, 20]
60: Lambsquarters plant response rating [4, 18] | Lambsquarters plant response rating ([4]; Postemergence, 500 g ai/ha) | Pigweed plant response rating ([7]; Postemergence, 500 g ai/ha) | Sedge, Umbrella plant response rating [10]
50: Pigweed plant response rating [7, 18]

COC(=O)c1ccc(F)c(NC(=O)c2nn(C(C)C)nc2C)c1 [Compound 398]
60: Velvetleaf plant response rating ([5]; Postemergence, 500 g ai/ha)
10: Blackgrass plant response rating ([1]; Postemergence, 500 g ai/ha) | Lambsquarters plant response rating [4, 18] | Lambsquarters plant response rating ([4]; Postemergence, 500 g ai/ha) | Pigweed plant response rating ([7]; Postemergence, 500 g ai/ha) | Surinam Grass plant response rating [8, 18] | Surinam Grass plant response rating ([8]; Postemergence, 500 g ai/ha) | Cocklebur plant response rating ([11]; Postemergence, 500 g ai/ha) | Crabgrass, Large plant response rating ([12]; Postemergence, 500 g ai/ha) | Wheat plant response rating [15, 21] | Rice plant response rating [16]
80: Sedge, Umbrella plant response rating [10]
0: Blackgrass plant response rating [1, 18] | Oat, Wild plant response rating [2, 18] | Oat, Wild plant response rating ([2]; Postemergence, 500 g ai/ha) | Plant response rating (0 to 100 scale), Foxtail, Giant ([3]; 125 g ai/ha) | Plant response rating (0 to 100 scale), Lambsquarters ([4]; 125 g ai/ha) | Plant response rating (0 to 100 scale), Velvetleaf ([5]; 125 g ai/ha) | Plant response rating (0 to 100 scale), Barnyardgrass ([6]; 125 g ai/ha) | Barnyardgrass plant response rating [6, 18] | Barnyardgrass plant response rating ([6]; Postemergence, 500 g ai/ha) | Plant response rating (0 to 100 scale), Pigweed ([7]; 125 g ai/ha) | Pigweed plant response rating [7, 18] | Plant response rating (0 to 100 scale), Surinam Grass ([8]; 125 g ai/ha) | Ducksalad plant response rating [9] | Plant response rating (0 to 100 scale), Cocklebur ([11]; 125 g ai/ha) | Cocklebur plant response rating [11, 18] | Plant response rating (0 to 100 scale), Crabgrass, Large ([12]; 125 g ai/ha) | Crabgrass, Large plant response rating [12, 18] | Plant response rating (0 to 100 scale), Morningglory ([13]; 125 g ai/ha) | Morningglory plant response rating [13, 18] | Plant response rating (0 to 100 scale), Corn ([14]; 125 g ai/ha) | Corn plant response rating [14, 18] | Wheat plant response rating [15, 19] | Wheat plant response rating [15, 20] | Barnyardgrass plant response rating [17]
20: Foxtail, Giant plant response rating [3, 18] | Velvetleaf plant response rating [5, 18] | Morningglory plant response rating ([13]; Postemergence, 500 g ai/ha) | Corn plant response rating ([14]; Postemergence, 500 g ai/ha)
30: Foxtail, Giant plant response rating ([3]; Postemergence, 500 g ai/ha)
